Laboratory results: paper PMC11527646, “Pharmacological blockade of the mast cell MRGPRX2 receptor supports investigation of its relevance in skin disorders” (Frontiers in Immunology, 2024)

Tests used:
[1] = tested on: rat MrgB3; experiment: Calcium mobilization in BacMam-transduced U2OS cells; assay type: cell-based
Experimental: (§1) Cell culture reagents were purchased from Thermo Fisher Scientific unless otherwise stated. The LAD2 human mast cell line was in-licensed from National Institutes of Health (NIH) and routinely cultured in StemPro™-34 SFM with nutrient supplement, 1× GlutaMax™, and recombinant human SCF (100 ng/mL). HEK293-MRGPRX2/Gα15 cells were cultured in DMEM containing 10% FBS. The parental U2OS cells were culture in DMEM/F-12 containing 10% FBS. BacMam virus containing human MRGPRX2 gene or animal orthologs [mouse Mrgprb2 (Gene ID: 243979), rat Mrgprb3 (Gene ID: 691194), dog MRGPRX2 (Gene ID: 102125889), cynomolgus monkey MRGPRX2 (Gene ID: 692078), and rhesus monkey MRGPRX2] were used to transduce U2OS cells for transient expression.
(§2) Supplemental Table 1: Compound A and Compound B are human MRGPRX2 selective antagonists. Antagonist and agonist activities of the two compounds were determined in calcium mobilization assays for human MRGPRX2 and its animal orthologs from various species. The activities were measured in […] (Molecular Devices) instrument using U2OS cells transduced with BacMam virus for transient expression of the relevant receptors. Data are presented as mean ± SEM when applicable.
(§3) Compound A and Compound B up to the highest concentration (100 µM) tested. In the antagonist […]
(§4) Compound A and B, respectively. […]
Taking together, […]

[2] = tested on: ion channel and enzyme targets; experiment: In vitro assays of the human safety prediction panel; settings: data not shown
From the text: Among them, the NK1 receptor with which SP is the canonical and high-affinity endogenous ligand.

[3] = target: T1, monkey MRGPRX2 (Cynomolgus macaques) (Macaca fascicularis, UniProt Q5U9D9); experiment: Calcium mobilization in BacMam-transduced U2OS cells; assay type: cell-based; settings: for Antagonist activity: likely due to receptor desensitization upon activation and not real antagonism
T1 construct: expressed in transfected cells; host or cells: U2OS transduced with BacMam virus
T1 sequence (Q5U9D9 1-330): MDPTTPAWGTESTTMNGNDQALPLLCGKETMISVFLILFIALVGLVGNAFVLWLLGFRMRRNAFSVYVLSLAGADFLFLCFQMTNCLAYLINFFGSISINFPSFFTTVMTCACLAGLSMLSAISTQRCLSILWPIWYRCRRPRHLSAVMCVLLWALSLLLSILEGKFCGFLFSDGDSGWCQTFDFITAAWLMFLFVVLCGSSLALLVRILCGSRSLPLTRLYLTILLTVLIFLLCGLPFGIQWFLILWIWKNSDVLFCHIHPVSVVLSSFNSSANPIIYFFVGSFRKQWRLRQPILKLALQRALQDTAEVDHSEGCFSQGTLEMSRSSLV
Experimental: as §1, §2, §3, §4
(§5) MRGPRX2 and Gα15 proteins (Fig. 1). On monkey MRGPRX2 receptors (both Cynomolgus […]
(§6) receptor desensitization upon activation and not real antagonism. […]

[4] = target: T2, monkey MRGPRX2 (Rhesus macaques) (Macaca mulatta, UniProt Q4QXU5); experiment: as above; assay type: cell-based; settings: for Antagonist activity: likely due to receptor desensitization upon activation and not real antagonism
T2 construct: expressed in transfected cells; host or cells: U2OS transduced with BacMam virus
Experimental: as §1, §2, §3, §4, §5, §6

[5] = target: T3, C3aR1 (Homo sapiens, UniProt Q16581); settings: for Effect on C3a-stimulated LAD2 degranulation: increasing concentrations of antagonist
T3 sequence (Q16581 1-482): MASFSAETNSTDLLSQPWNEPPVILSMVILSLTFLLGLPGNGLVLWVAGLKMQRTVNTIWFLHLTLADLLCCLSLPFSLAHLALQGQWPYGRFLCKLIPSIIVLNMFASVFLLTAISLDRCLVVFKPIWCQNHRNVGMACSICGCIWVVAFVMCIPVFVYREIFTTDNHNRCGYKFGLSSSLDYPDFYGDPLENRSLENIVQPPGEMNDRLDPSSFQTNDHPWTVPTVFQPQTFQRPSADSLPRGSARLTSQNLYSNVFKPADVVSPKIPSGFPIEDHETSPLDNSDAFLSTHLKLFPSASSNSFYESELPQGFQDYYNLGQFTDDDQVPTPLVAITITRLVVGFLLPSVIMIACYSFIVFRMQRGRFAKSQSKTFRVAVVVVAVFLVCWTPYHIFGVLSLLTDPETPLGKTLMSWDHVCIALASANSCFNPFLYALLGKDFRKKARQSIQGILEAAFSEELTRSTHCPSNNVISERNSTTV
From the text: Release of β-hexosaminidase from LAD2 cells was followed as a measurement of mast cell degranulation using a method described previously ([4]).
Potency data are presented as mean ± SEM.

[6] = target: T4, MRGPRX2 (Homo sapiens, UniProt Q96LB1); experiment: LAD2 mast cell degranulation (β-hexosaminidase release), MRGPRX2 ligand-mediated; assay type: cell-based; design: human mast cells expressing endogenous MRGPRX2; endogenous in cells; […]; settings: for IC50: mean ± SEM; for EC50: agonist mode, no mast cell activator, up to 50 μM tested, read-out: Activation of LAD-2 Cells EC50; for Kb: read-out: pA2 (apparent antagonist affinity, Schild analysis) (converted); for Nature of antagonism: vs Substance P concentration response curves
T4 sequence (Q96LB1 1-330): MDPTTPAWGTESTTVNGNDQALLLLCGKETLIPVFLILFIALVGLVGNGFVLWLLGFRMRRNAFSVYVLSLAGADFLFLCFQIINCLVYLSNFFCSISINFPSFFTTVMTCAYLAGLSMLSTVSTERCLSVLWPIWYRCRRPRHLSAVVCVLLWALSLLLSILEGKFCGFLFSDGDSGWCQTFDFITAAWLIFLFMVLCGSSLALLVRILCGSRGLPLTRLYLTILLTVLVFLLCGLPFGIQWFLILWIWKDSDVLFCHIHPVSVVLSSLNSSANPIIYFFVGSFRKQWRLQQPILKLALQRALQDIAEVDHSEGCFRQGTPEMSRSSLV
Experimental: Two different in vitro human mast cell systems were studied: (a) a human mast cell line, LAD2, established from a patient with mast cell sarcoma; and (b) mast cells freshly isolated from human skin. MRGPRX2 antagonist IC50 values were determined in the LAD2 mast cell degranulation assay using approximately EC80 concentrations for five different MRGPRX2 activating ligands (see Supplementary Figure 1 ).

[7] = target: T4, MRGPRX2; experiment: Calcium mobilization (FLIPR TETRA) in BacMam-transduced U2OS cells; assay type: cell-based; design: expressed in transfected cells; host or cells: U2OS transduced with BacMam virus; Agonist activity: dose or concentration left out as unconfirmed; settings: for Agonist activity: up to the highest concentration tested
Experimental: as §1, §2, §3, §4

[8] = target: T5, MRGPRX1 (Homo sapiens, UniProt Q96LB2); experiment: GPCR selectivity cellular assay; assay type: cell-based; settings: for EC50: Agonism, read-out: Agonist Activity (EC50); for IC50: Antagonism, read-out: Antagonist Activity (IC50)
T5 construct: expressed in transfected cells
Experimental: Antagonist and/or agonist activities of the two compounds were determined in cellular assays for 20 human G-protein coupled receptors (GPCR) beside MRGPRX2. Recombinant over-expression systems in mammalian cells were used for all assays listed in this table. […]
reported as ‘>’ the highest compound concentration allowed in that assay. […]
Agonist Activity (EC50 ) or Antagonist Activity (IC50 ), nM

[9] = Mast Cell Activator: Compound 48/80 at approx. EC80, read-out: Inhibition of Ligand Mediated LAD-2 Cell Activation and Degranulation IC50

T2 sequence (Q4QXU5 whole entry): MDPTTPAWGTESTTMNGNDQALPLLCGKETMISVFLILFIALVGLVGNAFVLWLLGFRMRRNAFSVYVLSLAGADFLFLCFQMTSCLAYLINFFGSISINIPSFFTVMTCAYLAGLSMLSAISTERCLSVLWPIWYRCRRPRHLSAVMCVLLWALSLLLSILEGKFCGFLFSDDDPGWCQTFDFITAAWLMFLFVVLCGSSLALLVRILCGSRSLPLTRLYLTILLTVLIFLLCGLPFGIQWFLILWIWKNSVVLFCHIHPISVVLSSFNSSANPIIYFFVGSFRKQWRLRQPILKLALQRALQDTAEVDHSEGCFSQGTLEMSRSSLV
T5 sequence (Q96LB2 whole entry): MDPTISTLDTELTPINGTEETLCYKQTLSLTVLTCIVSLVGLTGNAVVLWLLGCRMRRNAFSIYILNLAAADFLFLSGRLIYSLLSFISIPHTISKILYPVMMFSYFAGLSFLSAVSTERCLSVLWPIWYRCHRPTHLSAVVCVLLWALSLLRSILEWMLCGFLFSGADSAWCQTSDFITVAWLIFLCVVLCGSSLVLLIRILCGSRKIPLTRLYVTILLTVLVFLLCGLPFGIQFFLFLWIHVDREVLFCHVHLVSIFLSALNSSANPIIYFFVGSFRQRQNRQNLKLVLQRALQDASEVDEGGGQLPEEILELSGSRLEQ

| Structure (SMILES) | Agonist and antagonist activity [1] | Activity on ion channel and enzyme targets [2] | Agonist activity [3] | Antagonist activity [3] | Agonist activity [4] | Antagonist activity [4] | IC50 [5] | Effect on C3a-stimulated LAD2 degranulation [5] | IC50 [6, 9] | EC50 [6] | Kb [6] | Nature of antagonism [6] | Agonist activity [7] | EC50 [8] | IC50 [8] | also measured |
| --- | --- | --- | --- | --- | --- | --- | --- | --- | --- | --- | --- | --- | --- | --- | --- | --- |
| CC1(C)C(C(=O)Nc2ccccn2)C1(C)C [Compound A] | No agonist nor antagonist activity | inactive | weak agonist activities | very weak antagonist activities | weak agonist activities | very weak antagonist activities | > 50000 nM | lack of an effect | 232 ± 26 nM | > 50000 nM | 25.7 nM | partly surmountable | No agonist activity was detected | > 100000 nM | > 100000 nM | IC50 ([6]; Inhibition of Ligand Mediated LAD-2 Cell Activation and Degranulation IC50, Mast Cell Activator: Cortistatin-14 at approx. EC80): 22.8 nM; IC50 ([6]; Inhibition of Ligand Mediated LAD-2 Cell Activation and Degranulation IC50, Mast Cell Activator: PACAP-27 at approx. EC80): 61.2 ± 14.3 nM; IC50 ([6]; Inhibition of Ligand Mediated LAD-2 Cell Activation and Degranulation IC50, Mast Cell Activator: PAMP-12 at approx. EC80): 63.3 ± 6.2 nM; IC50 ([6]; Inhibition of Ligand Mediated LAD-2 Cell Activation and Degranulation IC50, Mast Cell Activator: Substance P (1 μM, approx. EC80)): 32.4 nM; IC50 [7]: 44.6 nM |
| C[C@@H](C(=O)Nc1cnc(Oc2ccc(F)cc2F)cn1)N1CCC(F)(F)[C@@H](c2cc[n+]([O-])cc2)C1 [Compound B] | No agonist nor antagonist activity | inactive | weak agonist activities | very weak antagonist activities | weak agonist activities | very weak antagonist activities | > 50000 nM | lack of an effect | 4 ± 0.3 nM | > 50000 nM | 0.891 nM | insurmountable | No agonist activity was detected | > 100000 nM | > 100000 nM | Effect on Substance P maximal response ([6]; 7.6 nM antagonist): dampen SP’s maximal response; Effect on degranulation response to highest Substance P concentration ([6]; 20 nM antagonist, Substance P 50 μM): abolish the degranulation response; IC50 ([6]; Mast Cell Activator: Cortistatin-14 at approx. EC80, read-out: Inhibition of Ligand Mediated LAD-2 Cell Activation and Degranulation IC50): 1 nM; IC50 ([6]; Mast Cell Activator: PACAP-27 at approx. EC80, read-out: Inhibition of Ligand Mediated LAD-2 Cell Activation and Degranulation IC50): 1.8 ± 0.1 nM; IC50 ([6]; Mast Cell Activator: PAMP-12 at approx. EC80, read-out: Inhibition of Ligand Mediated LAD-2 Cell Activation and Degranulation IC50): 2.6 ± 0.1 nM; IC50 ([6]; Mast Cell Activator: Substance P (1 μM, approx. EC80), read-out: Inhibition of Ligand Mediated LAD-2 Cell Activation and Degranulation IC50): 1.8 ± 0.1 nM; IC50 ([7]; Cortistatin 14 at approx. EC80, U2OS cells, read-out: Antagonist IC50 against Cortistatin 14): 3.6 nM |
